Assay results: ChEMBL document CHEMBL1149725, “4-acetylaplykurodin B and aplykurodinone B, two ichthyotoxic degraded sterols from the Mediterranean mollusk Aplysia fasciata” (J Nat Prod, 1992)

How the values were obtained:
Assay type in all cases: organism-based
Details in all cases: in vivo; call rule not given here
Gambusia affinis = assay: Toxicity in Gambusia affinis at 10 ppm
Carassius auratus = assay: Ichthyotoxicity in Carassius auratus at 60 ug/cm'2 by antifeedant assay
Artemia salina = assay: Toxicity in Artemia salina

SMILES | Activity (Gambusia affinis) | Activity (Carassius auratus) | LC50 (Artemia salina) [ppm]
CC(C)=CCC[C@@H](C)[C@H]1C[C@@H]2OC(=O)C[C@H]3C(=O)CC[C@@]1(C)[C@H]23 [APLYKURODINONE] | Toxic | Active | –
CC(=O)O[C@H]1CC[C@@]2(C)[C@H]3[C@H]1CC(=O)O[C@H]3C[C@@H]2[C@H](C)CCC=C(C)C [4-ACETYLAPLYKURODIN B] | Toxic | Active | 29.1
